In patent US11214803B2, “Modulators of YAP1 expression” (Ionis Pharmaceuticals, Inc., priority 2019, dated 2022):

Key:
Yap1 mRNA [1] = test: Inhibition of human Yap1 mRNA in SNU449 hepatocellular carcinoma xenograft tumors (Example 26); format: in vivo; conditions: SNU449 xenografts in NSG mice, 50 mg/kg twice weekly for five days, relative to PBS treated animals
In short: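 Female NSG mice bearing subcutaneous SNU449 xenografts (about 100 mm^3) dosed with modified oligonucleotides at 50 mg/kg twice weekly for five days, four per group. Tumour Yap1 mRNA measured by RT-qPCR, normalized to actin-beta, expressed as % of PBS-treated controls.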

[2] = Cynomolgus monkey tolerability, urine analysis (Example 34); conditions: cynomolgus monkeys, 35 mg/kg subcutaneously, day 44
Description: Prior to the study, the monkeys were kept in quarantine during which the animals were observed daily for general health. The monkeys were 2-4 years old and weighed 2-4 kg. Eleven groups of 4 randomly assigned male cynomolgus monkeys each were injected subcutaneously with Ionis oligonucleotide or saline in a clock-wise rotation between four different sites on the back. Following loading doses on days 1, 3, 5 and 7, the monkeys were dosed once per week (on days 14, 21, 28, 35, and 42) with 35 mg/kg of Ionis oligonucleotide.
Food was removed overnight the day before fresh urine collection, but water was supplied. Fresh urine samples for urinalysis and urine chemistry were collected from all animals using a clean cage pan on wet ice (first in the morning) on day 44. Urinalysis/Urine Chemistry parameters creatinine (UCRE), microprotein (UTP), urine microalbumin (UALB), and protein/creatinine (P/C) ratio were measured using a Toshiba 120FR automated chemistry analyzer (Toshiba Co., Japan).

Yap1 mRNA [3] = test: Inhibition of human Yap1 mRNA in squamous cell carcinoma CAL27 xenograft tumors (Example 28); format: in vivo; conditions: CAL27 xenografts in NCr-Foxn1nu mice, relative to PBS treated
Description: A squamous cell carcinoma CAL27 xenograft tumor model was used to evaluate activity of modified oligonucleotides targeted to human Yap1. Five million CAL27 cells in 30% matrigel were implanted subcutaneously into the flanks of female CrTac:NCr-Foxn1nu mice (from Taconic) at 4-6 weeks of age. Groups of four mice each were administered with either 15 mg/kg or 30 mg/kg of modified oligonucleotides daily for five days after tumor size had reached ˜100 mm^3 (about 3 weeks post implantation). Tumors were collected and tested for Yap1 mRNA knockdown by RT-qPCR. Yap1 mRNA levels were measured as previously described using the Human Yap1 primer-probe set RTS4814. Yap1 mRNA levels were normalized to actin-beta content, as measured by primer probe set RTS5002. Results are presented in the tables below as percent control of the amount of Yap1 mRNA relative to PBS treated […].

[4] = Cynomolgus monkey tolerability, pro-inflammatory proteins analysis, Complement C3 and CRP (Example 34); format: in vivo; conditions: cynomolgus monkeys, 35 mg/kg subcutaneously; for CRP: day 44
Description: To evaluate any inflammatory effect of Ionis oligonucleotides in cynomolgus monkeys, blood samples were taken for analysis. The monkeys were fasted overnight prior to blood collection. On day 42 (pre-dose and 24 hours post-dose), approximately 0.8 mL of blood was collected from each animal and put into tubes without anticoagulant for serum separation. […] Complement C3 were measured using a Toshiba 120 FR NEO chemistry analyzer (Toshiba Co., Japan). […] Another marker of inflammation, C-Reactive Protein (CRP) was tested together with the clinical chemistry parameters tested for liver function above.

[5] = rat, in vivo, sc, 50 mg/kg
Description: Male Sprague-Dawley rats were maintained on a 12-hour light/dark cycle and fed ad libitum with Purina normal rat chow. Groups of 4 Sprague-Dawley rats each were weekly injected subcutaneously with 50 mg/kg of Ionis oligonucleotide for 6 weeks (total 7 doses). Forty-eight hours after the last dose, the rats were euthanized; and organs, urine and plasma were harvested for further analysis.
To evaluate the effect of Ionis oligonucleotides on kidney function, urinary levels of total protein and creatinine were measured using an automated clinical chemistry analyzer (Hitachi Olympus AU400c, Melville, N.Y.).

Yap1 mRNA [6] = test: Yap1 mRNA in SCC25 cells, RNA analysis (Example 25); format: cell-based, human; conditions: free uptake, 48 hours, RTS4814, normalized to actin-beta
Description: Modified oligonucleotides described in the studies above were tested at various doses in squamous cell carcinoma cell SCC25. A control oligonucleotide 792169 (a 3-10-3 cET gapmer with a full phosphorothioate backbone, […], designated herein as SEQ ID No.: 2940; is not complementary to any known human gene) was also tested.
Cultured SCC25 cells at a density of 5,000 cells per well were treated using free uptake with modified oligonucleotides diluted to concentrations described in the tables below. After approximately 48 hours, Yap1 mRNA levels were measured as previously described using the Human Yap1 primer-probe set RTS4814. Yap1 mRNA levels were normalized to actin-beta content, as measured by primer probe set RTS5002 (forward sequence […], designated herein as SEQ ID NO.: 20; reverse sequence […], designated herein as SEQ ID NO.: 21; probe sequence […], designated herein as SEQ ID NO.: 22). Results are presented in the tables below as percent control of the amount of Yap1 mRNA relative to untreated control cells (% UTC).

[7] = Tolerability in Sprague-Dawley rats, body and organ weights (Example 22); format: in vivo; conditions: male Sprague-Dawley rats, 50 mg/kg s.c. weekly for 6 weeks (7 doses); for Kidney weight / Liver weight / Spleen weight: end of study; for body weight: terminal, prior to necropsy
Description: Terminal body weight was measured prior to necropsy. Ionis oligonucleotides that caused any changes in organ weights outside the expected range for modified oligonucleotides were excluded from further studies.

[8] = Cynomolgus monkey tolerability, hematology (Example 34); format: in vivo, cynomolgus monkeys; conditions: for BAS / EOS / HCT / HGB / LUC / LYM / MCH / MCHC / MCV / MON / NEU / PLT / RBC / RCDW / Retic / WBC: cynomolgus monkey, in vivo, sc, 35 mg/kg; for MPV: cynomolgus monkeys, 35 mg/kg subcutaneously, day 44
Description: To evaluate any effect of Ionis oligonucleotides in cynomolgus monkeys on hematologic parameters, blood samples of approximately 0.5 mL of blood was collected from each of the available study animals on day 44. The samples were collected in tubes containing K2-EDTA. Samples were analyzed for red blood cell (RBC) count, Hemoglobin (HGB), Hematocrit (HCT), Mean corpuscular volume (MCV), mean corpuscular hemoglobin (MCH), mean corpuscular hemoglobin concentration (MCHC), RBC Distribution Width (RCDW), reticulocyte count (Retic), platelet count (PLT), mean platelet volume (MPV), white blood cells (WBC) count, individual white blood cell counts, such as that of monocytes (MON), neutrophils (NEU), lymphocytes (LYM), eosinophils (EOS), basophils (BAS), and large unstained cells (LUC) using an ADVIA2120i hematology analyzer (Siemens, USA).

| Substance | Yap1 mRNA in tumors, % control (Yap1 mRNA [1]) [% control] | UALB [2] [mg/dL] | UCRE [2] [mg/dL] | UTP [2] [mg/dL] | Yap1 mRNA in tumors, % UTC (Yap1 mRNA [3]; 15 mg/kg daily for five days) [% UTC] | Yap1 mRNA in tumors, % UTC (Yap1 mRNA [3]; 30 mg/kg daily for five days) [% UTC] | Complement C3 ([4]; Day 42 (pre-dose)) [mg/dL] | Complement C3 ([4]; day 42 (24 hr post-dose)) [mg/dL] | CRP [4] [mg/L] | URINE P/C ratio (total protein to creatinine ratio) [5] | Yap1 mRNA, % UTC (Yap1 mRNA [6]; 0.04 μM) [% UTC] | Yap1 mRNA, % UTC (Yap1 mRNA [6]; 0.2 μM) [% UTC] | Yap1 mRNA, % UTC (Yap1 mRNA [6]; 1 μM) [% UTC] | Yap1 mRNA, % UTC (Yap1 mRNA [6]; 5 μM) [% UTC] | Kidney weight [7] [g] | Liver weight [7] [g] | Spleen weight [7] [g] | body weight [7] [g] | BAS [8] [%] | EOS [8] [%] | also measured |
| --- | --- | --- | --- | --- | --- | --- | --- | --- | --- | --- | --- | --- | --- | --- | --- | --- | --- | --- | --- | --- | --- |
| 1198605 (GTAATATTGCAATCTG; modified gapmer, further chemistry not given here) [compound 1198605] | 55 | 0.4 | 69 | 12 | 65 | 48 | 105 | 95 | 4.2 | 28 | 48 | 23 | 10 | 5 | 3.6 | 18 | 2.1 | 372 | 0.4 | 0.8 | HCT [8]: 46%; HGB [8]: 13 g/dL; LUC [8]: 0.5%; LYM [8]: 51%; MCH [8]: 22 pg; MCHC [8]: 29 g/dL; MCV [8]: 75 fL; MON [8]: 2.8%; NEU [8]: 44%; PLT [8]: 385 10^3/μL; RBC [8]: 6.1e+06 µL⁻¹; RCDW [8]: 13%; Retic [8]: 1.1%; WBC [8]: 10500 µL⁻¹; MPV [8]: 8.1 fL |
| 1198623 (CTAAGTAAGGTTTCCC; modified gapmer, further chemistry not given here) [compound 1198623] | 60 | 0.2 | 44 | 10 | 52 | 44 | 105 | 101 | 2.0 | 5 | 61 | 31 | 15 | 10 | 3.6 | 20 | 1.9 | 472 | 0.4 | 0.8 | HCT [8]: 46%; HGB [8]: 14 g/dL; LUC [8]: 0.7%; LYM [8]: 53%; MCH [8]: 23 pg; MCHC [8]: 30 g/dL; MCV [8]: 78 fL; MON [8]: 2.0%; NEU [8]: 43%; PLT [8]: 376 10^3/μL; RBC [8]: 5.9e+06 µL⁻¹; RCDW [8]: 13%; Retic [8]: 1.0%; WBC [8]: 11700 µL⁻¹; MPV [8]: 7.8 fL |
| 1198872 (TGTATGTCAGAAGAGT; chemically modified gapmer, further chemistry not given here) [compound 1198872] | 52 | 0.3 | 111 | 14 | 55 | 38 | 103 | 96 | 1.1 | 8 | 54 | 22 | 9 | 7 | 3.4 | 17 | 1.3 | 417 | 0.3 | 0.6 | HCT [8]: 44%; HGB [8]: 13 g/dL; LUC [8]: 0.5%; LYM [8]: 32%; MCH [8]: 23 pg; MCHC [8]: 30 g/dL; MCV [8]: 78 fL; MON [8]: 2.2%; NEU [8]: 64%; PLT [8]: 400 10^3/μL; RBC [8]: 5.7e+06 µL⁻¹; RCDW [8]: 12%; Retic [8]: 1.2%; WBC [8]: 10400 µL⁻¹; MPV [8]: 7.1 fL |
| 1198831 (CACTTTTACATTAGGA; chemically modified gapmer, further chemistry not given here) [compound 1198831] | 67 | 0.1 | 46 | 13 | 70 | 48 | 81 | 81 | 1.1 | 17 | 63 | 36 | 16 | 14 | 3.3 | 19 | 2.0 | 426 | 0.3 | 2.0 | HCT [8]: 43%; HGB [8]: 13 g/dL; LUC [8]: 0.8%; LYM [8]: 50%; MCH [8]: 23 pg; MCHC [8]: 30 g/dL; MCV [8]: 76 fL; MON [8]: 3.3%; NEU [8]: 44%; PLT [8]: 377 10^3/μL; RBC [8]: 5.6e+06 µL⁻¹; RCDW [8]: 12%; Retic [8]: 1.0%; WBC [8]: 7600 µL⁻¹; MPV [8]: 7.3 fL |
| 1198728 (TATTAGAGTATGTGGC; modified gapmer, further chemistry not given here) [compound 1198728] | 64 | 0.3 | 70 | 16 | 77 | 56 | 93 | 90 | 4.0 | 7 | 71 | 31 | 15 | 7 | 2.9 | 15 | 1.4 | 381 | 0.5 | 2.2 | HCT [8]: 47%; HGB [8]: 14 g/dL; LUC [8]: 0.9%; LYM [8]: 64%; MCH [8]: 23 pg; MCHC [8]: 29 g/dL; MCV [8]: 80 fL; MON [8]: 2.9%; NEU [8]: 29%; PLT [8]: 428 10^3/μL; RBC [8]: 5.9e+06 µL⁻¹; RCDW [8]: 12%; Retic [8]: 1.3%; WBC [8]: 10700 µL⁻¹; MPV [8]: 8.0 fL |
